Series [1] has as its system IFN-γ-induced STAT1 phosphorylation. The experiment in a line: Western blot of IFN-γ-induced STAT1 phosphorylation in L929 cells. It is filed as cell-based, mouse. As to conditions: siRNA 50 nM, 48 h, IFN-γ 100 ng/mL 30 min, compared to siNC in Group 3, FIG. 17. A general note: A western blot detects proteins with antibodies after separation by electrophoresis.
Procedure: Mouse fibroblast L929 cells were seeded into a 6-well cell culture plate at 1×10^5 cells/well, and the culture medium was 2 mL of DMEM containing 10% FBS and 1% penicillin-streptomycin.
The cells were then harvested, and the total cellular proteins were extracted to detect the levels of phosphorylated STAT1 by Western blot.
1) The cells were lysed in an appropriate volume of pre-chilled RIPA lysis solution (supplemented with 1 mM PMSF, R1090, LABLEAD prior to use; containing protease and phosphatase inhibitors) for 3-5 min. The lysates were centrifuged at 14000 g at 4° C. for 5 min. The supernatant was carefully pipetted into a new 1.5 mL centrifuge tube. Protein concentrations were measured using the BCA method (PC0020, Solarbio). The samples were mixed with a loading buffer and incubated in a water bath kettle at 95° C. for 10 min.
2) The protein samples were separated by electrophoresis on 4-12% 12-well gradient gels (P41212, LABLEAD) using compatible electrophoresis buffer. […]
4) The PVDF membrane was trimmed based on the molecular weight of the protein and the marker, and blocked with 5% skim milk in TBST at room temperature for 1 h. […] After the membrane was washed again, chemiluminescent substrate (E1050, E1080, LABLEAD) was added, and signals were captured using the Bio-Red imaging system (ChemiDoc™ XRS+Imager) and analyzed using the accompanying software. […]
The test system of series [2] is JAK1 gene. The experiment in a line: qPCR of JAK1 expression in HaCaT cells transfected with modified siJAK1. The format is cell-based, human. As to conditions: siRNA 50 nM, 48 h after transfection, JAK1 by qPCR, siNC = 100.00. How it is done: One day prior to transfection, 293T cells were seeded into a 24-well cell culture plate at 1×10^5 cells/well, and the culture medium was 500 μL of DMEM containing 10% FBS and 1% penicillin-streptomycin. Three replicate wells were made for each group. The culture plate was placed in an incubator with 5% CO2 at 37° C. for 24 h to allow the cells to adhere to the wall. On the day of transfection, the culture medium was changed to 450 μL of DMEM culture medium without antibiotics (containing 10% FBS). The siRNAs were diluted with 25 μL of Opti-MEM culture medium, and the control group was siNC at the same concentration; a Lipofectamine™RNAiMAX transfection reagent (Lip) was diluted with another 25 μL of Opti-MEM culture medium, and the mixture was left to stand at room temperature for 5 min; and the two dilutions were uniformly mixed and left to stand at room temperature for 5 min. 50 μL of the mixed solution described above was added to each well to obtain a final transfection volume of 500 μL, and the working concentration of the siRNA was 50 nM. After the cells were further cultured in an incubator with 5% CO2 at 37° C. for 48 h, the total RNA of the cells was extracted.
1) The RNA was reverse-transcribed into a cDNA template using the All-in-One First-Strand Synthesis MasterMix (LABLEAD, Cat. No.: F0202) kit. The reaction system was established according to Table 2, where all components were mixed uniformly and centrifuged to collect the liquid at the bottom of a tube, and the PCR program was run according to the settings of 37° C. for 2 min, 55° C. for 15 min, and 85° C. for 5 min, thereby giving the cDNA template.
2) The gene expression level was detected using the Taq SYBR® Green qPCR Premix (LABLEAD, Cat. No.: R0202) kit, and the qPCR system was established according to Table 3. All components were mixed uniformly and centrifuged to collect the liquid at the bottom of a tube, and the PCR program was run according to the following settings: • Step1: 95° C. 30 s; • Step2: 95° C. 10 s; • Step3: 60° C. 30 s+Plate Read; • Step4: Go to Step2, 40 times; • Step5: Melt Curve 65 to 95° C., increment 0.5° C., for 5 s+Plate Read.
GAPDH was used as an endogenous reference to detect the relative expression level of JAK1 gene, and the sequences of the primers used are as follows: […]
According to the method described in Example 2, human keratinocyte HaCaT cells were transfected with the modified siJAK1 at an siRNA working concentration of 50 nM. The expression level of JAK1 was detected by qPCR 48 h after the transfection. The controls included siNC and unmodified siJAK1 at the same concentration.
Background: Quantitative PCR measures a nucleic acid by following its amplification.

In the case of “siJAK1-3283-m11: 2′-OMe and 2′-F modified siJAK1-3283; sense strand SEQ ID NO: 51, antisense strand SEQ ID NO: 55 (sense AGAACAUUGUGAAGUACAAUU; antisense UUGUACUUCACAAUGUUCUUU; 2'-OMe and 2'-F modifications; modified_base 20..21 OTHER; thymine; modified_base 1..2 OTHER; 2'-O-methyl; modified_base 3 OTHER; 2'-fluoro; modified_base 4 OTHER; modified_base 5 OTHER; modified_base 6 OTHER; modified_base 7 OTHER; modified_base 8 OTHER; modified_base 9..11 OTHER; modified_base 12 OTHER; modified_base 13 OTHER; modi; modified_base 1..3 OTHER; modified_base 7)”, the “Inhibition of IFN-γ-induced STAT1 phosphorylation level by modified siJAK1 (Western blot)” value in series [1] is “superior inhibitory effects”. The “Relative expression level, Mean value (Mean)” value in series [2] is listed as 18.37.

Values taken from US20260152751A1, “INTERFERING RNA FOR INHIBITING JAK1 GENE EXPRESSION AND USE THEREOF” (Jenkem Technology Co., Ltd. (BEIJING), priority 2024, published 2026).
